Here are results for 18 compounds from ChEMBL document CHEMBL3612033, “Synthesis of 3,4-diaminobenzoyl derivatives as factor Xa inhibitors” (Eur J Med Chem, 2015).

SMILES strings stand for the structures. Some results are limits rather than exact numbers.

For test [1], the target named is T1, Coagulation factor X (Oryctolagus cuniculus) (UniProt O19045).
T1 sequence (whole entry): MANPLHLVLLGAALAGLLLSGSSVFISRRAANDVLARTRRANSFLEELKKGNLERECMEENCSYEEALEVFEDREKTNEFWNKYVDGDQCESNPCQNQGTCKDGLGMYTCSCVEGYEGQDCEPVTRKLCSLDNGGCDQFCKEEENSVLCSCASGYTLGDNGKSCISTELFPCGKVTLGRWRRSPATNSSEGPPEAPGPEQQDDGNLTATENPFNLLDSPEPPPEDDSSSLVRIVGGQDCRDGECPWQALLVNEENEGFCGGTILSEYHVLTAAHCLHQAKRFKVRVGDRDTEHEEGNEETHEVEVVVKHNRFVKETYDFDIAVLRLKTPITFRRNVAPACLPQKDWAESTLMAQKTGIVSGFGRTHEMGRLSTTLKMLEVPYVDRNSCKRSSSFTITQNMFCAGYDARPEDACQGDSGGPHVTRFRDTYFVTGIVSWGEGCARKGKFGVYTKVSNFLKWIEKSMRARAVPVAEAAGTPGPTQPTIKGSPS
Nature of the test: Inhibition of F10a in rabbit plasma assessed as ratio of compound prothrombin time to vehicle control prothrombin time at 100 nM after 2 mins by automatic coagulation analyser.

Test [2] has as its target Coagulation factor X (Homo sapiens, UniProt P00742). As to the kind of experiment: Inhibition of human F10a using S-2765 as substrate preincubated for 10 mins followed by substrate addition by microplate reader analysis.
In test [3] the target is Trypsin (Homo sapiens, UniProt P07477+P07478+P35030). As to the kind of experiment: Inhibition of trypsin (unknown origin) using S-2222 as substrate. It is filed as protein assay.
Test [4] addresses Prothrombin (Bos taurus, UniProt P00735). As to the kind of experiment: Inhibition of bovine plasma thrombin using S-2238 as substrate.

Coagulation factor X, sequence (P00742 41-179 limits assumed): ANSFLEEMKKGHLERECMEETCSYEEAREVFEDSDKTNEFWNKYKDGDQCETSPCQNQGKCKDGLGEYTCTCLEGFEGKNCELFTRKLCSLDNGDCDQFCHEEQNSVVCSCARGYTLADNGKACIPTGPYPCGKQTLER
Coagulation factor X, sequence (P00742 235-488 limits assumed): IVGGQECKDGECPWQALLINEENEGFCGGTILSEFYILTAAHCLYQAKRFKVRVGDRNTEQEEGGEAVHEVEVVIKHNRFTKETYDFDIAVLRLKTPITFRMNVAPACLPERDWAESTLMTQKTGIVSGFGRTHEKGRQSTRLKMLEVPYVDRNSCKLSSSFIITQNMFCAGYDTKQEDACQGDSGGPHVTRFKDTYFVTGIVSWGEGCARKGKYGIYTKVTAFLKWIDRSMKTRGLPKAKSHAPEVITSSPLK

Turning to `COc1ccc(C(=O)Nc2cc(C(N)=O)ccc2NC(=O)c2ccc(-n3ccccc3=O)cc2)cc1`, the Ratio in test [1] came to 1.87.
The same measure, in the same setting: the value for `NC(=O)c1ccc(NC(=O)c2ccc(-n3ccccc3=O)cc2)c(NC(=O)c2ccc3ncoc3c2)c1` was 1.66.
Take `NC(=O)c1ccc(NC(=O)c2ccc(-n3ccccc3=O)cc2)c(NC(=O)c2ccc(F)cc2)c1`: in test [1], the Ratio turned out to be 1.27.
For the compound `COc1cc(C(=O)Nc2cc(C(N)=O)ccc2NC(=O)c2ccc(-n3ccccc3=O)cc2)cc(OC)c1OC`, the Ratio in test [1] came out at 2.06. In addition, the IC50 in test [2] worked out at 28.6 nM.
For the compound `COc1cc(C(=O)Nc2cc(C(N)=O)ccc2NC(=O)c2ccc(N3CCCC3=O)cc2)cc(OC)c1OC`, in test [1], the Ratio was 1.27.
With `NC(=O)c1ccc(NC(=O)c2ccc(-n3ccccc3=O)cc2)c(NC(=O)c2ccc(Cl)cc2)c1`, in test [1], the Ratio came to 1.88.
For `NC(=O)c1ccc(NC(=O)c2ccc(-n3ccccc3=O)cc2)c(NC(=O)c2ccc(Br)cc2)c1`, the IC50 in test [2] was determined as 25.9 nM.
Regarding `COc1cc(C(=O)Nc2cc(C(=O)O)ccc2NC(=O)c2ccc(-n3ccccc3=O)cc2)cc(OC)c1OC`, in test [1], the Ratio was 1.15.
On to `NC(=O)c1ccc(NC(=O)c2ccc(-n3ccccc3=O)cc2)c(NC(=O)c2ccc(NC=O)cc2)c1`, for which the Ratio in test [1] was 1.54.
Still for that read-out and setting: the value for `NC(=O)c1ccc(NC(=O)c2ccc(-n3ccccc3=O)cc2)c(NC(=O)c2ccc(Cl)nc2)c1` was 1.27.
On to `COc1ccc(C(=O)Nc2cc(C(N)=O)ccc2NC(=O)c2ccc(-n3ccccc3=O)cc2)cc1OC`, for which the IC50 was greater than 100000 nM in test [3], greater than 100000 nM in test [4] and 17.1 nM in test [2]. In addition, the Ratio in test [1] amounted to 1.94.
In the case of `CCOC(=O)c1ccc(NC(=O)c2ccc(-n3ccccc3=O)cc2)c(NC(=O)c2cc(OC)c(OC)c(OC)c2)c1`, in test [1], the Ratio came to 1.21.
Same read-out and setting: the value for `COc1cc(C(=O)Nc2ccc(C(N)=O)cc2NC(=O)c2ccc(-n3ccccc3=O)cc2)cc(OC)c1OC` was 1.07.
Consider `CC(=O)Nc1ccc(C(=O)Nc2cc(C(N)=O)ccc2NC(=O)c2ccc(-n3ccccc3=O)cc2)cc1`, for which the Ratio in test [1] was determined as 1.72. Also, the IC50 in test [2] was 15.6 nM.
As for `NC(=O)c1ccc(NC(=O)c2ccc(-n3ccccc3=O)cc2)c(NC(=O)c2ccc(Cl)s2)c1`, the Ratio in test [1] stood at 1.33.
As for `COc1cc(C(=O)Nc2cc(C(N)=O)ccc2NC(=O)c2ccn(-c3ccccc3)c(=O)c2)cc(OC)c1OC`, the Ratio in test [1] was 2.1.
Compound `NC(=O)c1ccc(NC(=O)c2ccc(-n3ccccc3=O)cc2)c(NC(=O)c2ccc(Cl)c(Cl)c2)c1` had a half-maximal inhibitory concentration (IC50) in test [2] of 6.5 nM.
Regarding `COc1cc(C(=O)Nc2cc(C(N)=O)ccc2NC(=O)c2ccc(N3CCCCC3=O)cc2)cc(OC)c1OC`, in test [1], the Ratio was 1.16.

What is called IC50 is the concentration at which inhibition is half-maximal. A low value points to inhibition by little substance.
